{
  "source": "patent US5998366A",
  "about": "“Method for ameliorating glutamic acid decarboxylase associated autoimmune disorders” (The Regents of the University of California, priority 1997, dated 1999)",
  "key": {"spleen cells of NOD mice": {"system": "spleen cells of NOD mice", "assay": "Proliferative recall response of spleen cells to β-cell antigens, by age", "type": "cell-based", "conditions": "female NOD mice, 10 μg/ml antigen or 7 μM peptide, 72 h culture (FIG. 8)", "description": "NOD (Taconic farms) and BALB/c mice (Jackson Laboratories) were kept under specific pathogen free conditions. The mice were sacrificed at the ages indicated and the spleen cells were tested directly ex vivo for their proliferative recall response to antigen. Single cell suspensions of spleen cells were plated at 1×10^6 cells per well in 96 well microtiter plates in 200 μl serum free HL-1 medium (Ventrex) that was supplemented with 2 mM glutamine with or without 10 μg/ml antigen (or 7 μM peptide) in triplicate cultures. During the last 16 h of the 72 h culture period, 1 μCi[^3 H]-thymidine was added per well. Incorporation of label was measured by liquid scintillation counting.\nBoth human GAD65 (Bu, et al., Proc. Natl. Acad. Sci., 89:2115-2119, 1992) and E. coli β-gal (control) were purified from recombinant bacteria on the basis of a hexahistidine tag which allows their rapid affinity purification by metal affinity chromatography (Hochuli, et al., Bio/Technology, 6:1321-1325, 1988). Bovine CPH was the generous gift of L. Fricker (Albert Einstein Col. Med.) and human insulin was purchased from Eli Lilly."}, "[1]": {"biological_target": "T1, 64 kD pancreatic polypeptide (Homo sapiens, UniProt Q05329)", "T1 construct": "antibodies which recognize specific polypeptides produced in human pancreatic islet cells; endogenous in cells; host or cells: human pancreatic islet cells from cadaveric pancreas, metabolically labelled with 35S-methionine", "T1 sequence (Q05329 whole entry)": "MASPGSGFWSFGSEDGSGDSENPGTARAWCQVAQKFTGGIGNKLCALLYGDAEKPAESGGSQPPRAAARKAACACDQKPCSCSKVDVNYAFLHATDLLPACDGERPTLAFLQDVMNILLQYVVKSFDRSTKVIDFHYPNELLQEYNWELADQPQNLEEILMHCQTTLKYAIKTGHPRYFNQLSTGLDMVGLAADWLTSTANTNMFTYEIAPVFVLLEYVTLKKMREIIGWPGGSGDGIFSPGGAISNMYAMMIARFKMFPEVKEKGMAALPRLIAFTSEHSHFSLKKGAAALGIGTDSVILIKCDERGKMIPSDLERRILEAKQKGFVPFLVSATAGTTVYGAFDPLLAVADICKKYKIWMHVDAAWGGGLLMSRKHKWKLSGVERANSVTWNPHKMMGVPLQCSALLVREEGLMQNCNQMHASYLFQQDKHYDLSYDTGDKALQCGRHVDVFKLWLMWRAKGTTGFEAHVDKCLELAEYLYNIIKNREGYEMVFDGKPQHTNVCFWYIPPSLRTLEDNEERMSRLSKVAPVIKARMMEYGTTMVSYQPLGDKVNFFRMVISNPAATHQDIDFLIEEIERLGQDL", "assay": "Prior absorption of patient sera, then immunoprecipitation of the 64 kD islet cell polypeptide", "type": "binding", "excerpt": "4. Human Islet Cells. Human pancreatic islets were isolated from cadaveric pancreases and maintained in vitro as previously described (Ricordi, et al., Diabetes, 37:413-420, 1988). The islet cells were metabolically labeled with ^35 S methionine (Amersham, Arlington Heights, Ill.) in vitro (95% air/5%CO2).\n5. Islet Cell Extractions and Immunoprecipitations. Islet cells were extracted as previously described by Atkinson, et al. (Lancet, 335:1357-1360, 1990) with the following modifications. […] Following another incubation with protein A Sepharose CL-4B (1 h, 4° C.), the complexes were then washed 5 times with 50 mM Tris HCL (pH 7.4) with 0.1% SDS, 1.0% Triton X-114, and 2 mM EDTA, and then washed again one time in double distilled water. The protein A Sepharose CL-4B was then boiled in Laemmli sample buffer (Laemmli, Nature, 227:680-685, 1970), and the samples were subjected to SDS-PAGE and fluororadiography (Kodak, X-omat AR5) using Enhance (New England Nuclear). Alternatively, the autoradiographs were analyzed by a BETAGEN (Boston, Mass.) analyzer. Both 64 KA positive and negative sera were used in each assay, to serve as interassay controls. All fluororadiographs were analyzed and rated as positive or negative after comparison with the known interassay controls."}, "female NOD mice [2]": {"system": "female NOD mice", "assay": "Insulitis score after tolerance induction", "type": "in vivo", "conditions": "Table 8A: i.v. injection at 3 weeks of age in PBS, examined at 12 weeks; scale 0-4; mean ± SE", "description": "1. In these experiments female NOD mice were intravenously injected at 3 weeks of age with 50 μg GAD, μ-galactosidase, mycobacterial hsp65 (m-hsp) or 0.1 μg of the immunodominant hsp peptide (hsp-p), in PBS. At 12 weeks of age, mice were examined for insulitis and autoantigen reactive T-cells. At this age both indications are established in untreated NOD mice. Pancreatic tissue sections were stained by immunoperoxidase techniques for insulin and were counterstained with hematoxylin. Insulitis was scored in a blinded manner by examining 54 to 87 islets on 5 interrupted tissue sections from each pancreas. Proliferative splenic T-cell responses induced by various antigens were performed as described above in Example 4. Data in Table 8 are expressed as the average [^3 H]-thymidine label (cpm) incorporated in triplicate cultures.\n2. In a second set of experiments neonatal female NOD mice were injected intraperitoneally IFA with peptide 11, a mixture of peptides 34 and 35 plus IFA, or with IFA alone and at 12 weeks of age the mice were examined for insulitis and autoantigen reactive T-cells as in Example 6.1. Proliferative splenic T-cell responses induced by the various antigens were performed as in Example 4, and data in Table 8B are expressed as the average [^3 H]-thymidine label (cpm) incorporated in triplicate cultures.\n3. In a third set of experiments female NOD mice were intravenously injected at three weeks of age with peptide 11 (control), a mixture of peptides 34 and 35 plus IFA, or with HEL peptides and at 12 weeks of age the mice were examined for insulitis and autoantigen reactive T-cells as in Example 6.1. Proliferative splenic T-cell responses induced by the various antigens were performed as in Example 4, and data in Table 8C are expressed as the average [^3 H]-thymidine label (cpm) incorporated in triplicate cultures."}, "female NOD mice [3]": {"system": "female NOD mice", "assay": "GAD immunization of 8 week old NOD mice, onset of IDDM", "type": "in vivo", "conditions": "again every 6 weeks", "excerpt": "An IPTG inducible T7 expression vector was used to express both human GAD65 and E. coli b galactosidase (β-gal). In IPTG induced recombinant E. coli, GAD and β-gal constitute about 10-20% of the total bacterial protein. However, almost all of the GAD was in inclusion bodies, which could be isolated and extensively washed to obtain material that is about 80% GAD. We then did affinity purifications of GAD and β-gal on the basis of a hexa-histidine \"tag\" which was attached to GAD during the subcloning process. These extra histidine residues allow the rapid affinity purification (Novagen) of GAD by metal affinity chromatography (Hochuli, et al., Bio Technology, 6:1321-1325, 1988). The inclusion body material is solubilized in 6M guanidine hydrochloride (GHCL), 10 mm β-mercaptoethanol and 1% triton X-100. After binding to the column, the column was extensively washed with GHCL and 8M urea in phosphate buffers. Only the central peak GAD fraction was utilized for subsequent studies. Human GAD65 shares 96% amino acid sequence identity with murine GAD65, with most of the amino acid differences being conservative substitutions.\nBreeder mice were purchased from Taconic Farms and housed under specific pathogen-free conditions. Only female NOD mice were used in this study. The average age of IDDM onset in unrelated females in the colony was 22 weeks. Insulitis is generally observed beginning at 4 weeks of age. T cell responses to GAD, HSP, CPH were found by 6 weeks in age. The incidence of IDDM in female mice is 70-90% by one year of age.\nAt 8 weeks of age, 25 ug GAD or control β-gal. was injected intraperftoneally (ip) in 100 ul of incomplete Freunds adjuvant (IFA). Because there may be a requirement for continual antigen presentation (Ramsdell, et al., Science, 257:1130-1133, 1992) mice were treated again every 6 weeks. Urine glucose levels were monitored twice weekly. After observing above normal glucose in urea, blood glucose levels were monitored twice weekly. Two consecutive blood glucose level readings of […] was considered as IDDM onset, after which the mice were sacrificed and spleen cells were tested as described above in Example 6 for evidence of spleen cell proliferation."}, "[4]": {"system": "spleen cells of treated female NOD mice", "assay": "Proliferative splenic T-cell responses to antigens after tolerance induction", "type": "in vivo", "conditions": "Table 8A: i.v. at 3 weeks, tested at 12 weeks"}, "[5]": {"system": "IDDM autoantibodies in sera of human patients", "assay": "Immunoprecipitation of 35S-labeled GAD65 segments by IDDM patient sera", "type": "binding", "conditions": "22 IDDM patient sera, 30 μl serum", "excerpt": "Portions of human GAD65 cDNA were amplified by the polymerase chain reaction (PCR; Saiki, et al., Science, 239:487, 1988) to produce DNA segments encoding three polypeptide segments: amino acid residues 1-224 (segment A); 224-398 (segment B); and 398-585 (segment C). Each construct also contained a T7 promoter, a consensus sequence for the initiation of translation and an initiating methionine codon (Korak, M., J. Cell Biol., 108:229, 1989). Each PCR product was then trascribed in vitro with T7 RNA polymerase and translated in vitro in a rabbit reticulocyte cell-free system in the presence of ^35 S-methionine, using conditions recommended by the supplier (Amersham Corp., Arlington Heights, Ill.). Each test serum (30 μl) was incubated with the resulting ^35 S labeled-polypeptides. The bound peptides were isolated with PAS and analyzed by SDS-PAGE in 12% polyaacrylamide and autoradiography."}},
  "data": [
    {"molecule": "insulin: human insulin purchased from Eli Lilly [reference compound]", "values": [
      {"measurement": "age at which the proliferative T-cell response to the antigen appeared", "setting": "spleen cells of NOD mice", "result": 12, "unit": "weeks"}
    ]},
    {"molecule": "bacterially produced GAD65: GAD65 expressed in bacteria, used to absorb patient sera", "values": [
      {"measurement": "ability of the absorbed sera to recognize the 64 kD pancreatic polypeptide", "setting": "[1]", "result": "abolished"}
    ]},
    {"molecule": "CPH: bovine carboxypeptidase H, gift of L. Fricker [reference compound]", "values": [
      {"measurement": "age at which the proliferative T-cell response to the antigen appeared", "setting": "spleen cells of NOD mice", "result": "≤ 8", "unit": "weeks"}
    ]},
    {"molecule": "β-Gal.: E. coli β-galactosidase (control antigen) purified from recombinant bacteria by hexahistidine tag [reference compound]", "values": [
      {"measurement": "Insulitis Score", "setting": "female NOD mice [2]", "result": "2.6 ± 0.6"},
      {"measurement": "mice that developed IDDM by 27 weeks in age", "setting": "female NOD mice [3]; 25 ug ip in IFA at 8 weeks of age", "result": "6/10"},
      {"measurement": "treated mice remaining disease free at 52 weeks of age", "setting": "female NOD mice [3]; 25 ug ip in IFA at 8 weeks, 10 mice per group", "result": 2},
      {"measurement": "Spleen Cell Proliferation (SI ± SEM) CPH", "setting": "[4]; recall antigen CPH", "result": "11.5 ± 0.9", "unit": "SI"},
      {"measurement": "Spleen Cell Proliferation (SI ± SEM) GAD", "setting": "[4]; recall antigen GAD", "result": "15.4 ± 1.8", "unit": "SI"},
      {"measurement": "Spleen Cell Proliferation (SI ± SEM) GAD Peptides #17", "setting": "[4]; recall antigen GAD peptide #17", "result": "5.1 ± 0.6", "unit": "SI"},
      {"measurement": "Spleen Cell Proliferation (SI ± SEM) GAD Peptides #34", "setting": "[4]; recall antigen GAD peptide #34", "result": "5.1 ± 0.6", "unit": "SI"},
      {"measurement": "Spleen Cell Proliferation (SI ± SEM) GAD Peptides #35", "setting": "[4]; recall antigen GAD peptide #35", "result": "4.0 ± 0.2", "unit": "SI"},
      {"measurement": "Spleen Cell Proliferation (SI ± SEM) hsp Peptide", "setting": "[4]; recall antigen hsp peptide", "result": "6.6 ± 0.5", "unit": "SI"},
      {"measurement": "Spleen Cell Proliferation (SI ± SEM) β-Gal", "setting": "[4]; recall antigen β-Gal", "result": "1.1 ± 0.1", "unit": "SI"}
    ]},
    {"molecule": "segment B: human GAD65 amino acid residues 224-398, translated in vitro, 35S labeled", "values": [
      {"measurement": "patients with antibodies reactive with the segment", "setting": "[5]", "result": 41, "unit": "%"}
    ]},
    {"molecule": "segment C: human GAD65 amino acid residues 398-585, translated in vitro, 35S labeled (protein, UniProt Q05329 398-585, looked up, fragment, 35S label, human GAD65 amino acid residues 398-585, translated in vitro, 35S labeled) MGVPLQCSALLVREEGLMQNCNQMHASYLFQQDKHYDLSYDTGDKALQCGRHVDVFKLWLMWRAKGTTGFEAHVDKCLELAEYLYNIIKNREGYEMVFDGKPQHTNVCFWYIPPSLRTLEDNEERMSRLSKVAPVIKARMMEYGTTMVSYQPLGDKVNFFRMVISNPAATHQDIDFLIEEIERLGQDL", "values": [
      {"measurement": "patients with antibodies reactive with the segment", "setting": "[5]", "result": 27, "unit": "%"}
    ]},
    {"molecule": "segment A: human GAD65 amino acid residues 1-224, translated in vitro, 35S labeled (protein, UniProt Q05329 1-224, looked up, fragment, 35S label, human GAD65 amino acid residues 1-224, translated in vitro, 35S labeled) MASPGSGFWSFGSEDGSGDSENPGTARAWCQVAQKFTGGIGNKLCALLYGDAEKPAESGGSQPPRAAARKAACACDQKPCSCSKVDVNYAFLHATDLLPACDGERPTLAFLQDVMNILLQYVVKSFDRSTKVIDFHYPNELLQEYNWELADQPQNLEEILMHCQTTLKYAIKTGHPRYFNQLSTGLDMVGLAADWLTSTANTNMFTYEIAPVFVLLEYVTLKKM", "values": [
      {"measurement": "patients with antibodies reactive with the segment", "setting": "[5]", "result": "none"}
    ]}
  ]
}
